# Reference: patent US6706705B1, “Quinazoline derivatives” (Nippon Chemiphar Co., Ltd., priority 1994, dated 2004)
# Legend:
# Assay type in all cases: in vivo, rat
# [1] = tested on: male spontaneously hypertensive rats (SHR); assay: Pharmacological Test-1: blood pressure after oral administration in spontaneously hypertensive rats; conditions: for Blood Pressure (mmHg) 1 hr. / Blood Pressure (mmHg) 3 hrs. / Blood Pressure (mmHg) 6 hrs. / Blood Pressure (mmHg) 9 hrs. / Blood Pressure (mmHg) 12 hrs.: oral; for Blood Pressure (mmHg) 1 hr.: variation of blood pressure 1 hr. after administration; for Blood Pressure (mmHg) 3 hrs.: variation of blood pressure 3 hrs. after administration; for Blood Pressure (mmHg) 6 hrs.: variation of blood pressure 6 hrs. after administration; for lapse of time until approximately maximum blood pressure depression / blood pressure depression, result in words: summary of Table 1; for Blood Pressure (mmHg) 9 hrs.: variation of blood pressure 9 hrs. after administration; for Blood Pressure (mmHg) 12 hrs.: variation of blood pressure 12 hrs. after administration
# Procedure: (§1) This test was performed using male spontaneously hypertensive rats (SHR, 15 weeks old or older, 300 to 400 g). Under halothane anesthesia, the left femoral arteries of the rats were cannulated using a polyethylene cannula. The cannula was connected to a device for blood pressure measurement. Then, the rats were placed in the Bollman-type cages. After one hour, it was confirmed that the blood pressure was kept constant. When the rats waked, they were orally administered with the test compound, and variation of blood pressure after the administration was measured as time passed. The test compound was suspended or dissolved in 1% aqueous methylcellulose solution and administered in an amount of 0.2 mL per 100 g of body weight.
# [2] = tested on: normal male rats of Wister strain; assay: Pharmacological Test-4: blood pressure after oral administration in normal rats; conditions: for Blood Pressure (mmHg) 1 hr. / Blood Pressure (mmHg) 3 hrs. / Blood Pressure (mmHg) 6 hrs. / Blood Pressure (mmHg) 9 hrs. / Blood Pressure (mmHg) 12 hrs.: oral; for Blood Pressure (mmHg) 1 hr.: 1 hr. after administration; for Blood Pressure (mmHg) 3 hrs.: 3 hrs. after administration; for Blood Pressure (mmHg) 6 hrs.: 6 hrs. after administration; for Blood Pressure (mmHg) 9 hrs.: 9 hrs. after administration; for Blood Pressure (mmHg) 12 hrs.: 12 hrs. after administration; for effect on normal blood pressure, result in words: summary of Table 4
# Procedure: as §1
# (§2) This test was performed by measuring the blood pressure in the same manner as in the above pharmacological test-1 using normal male rats of Wister strain (15 weeks old or older, 300 to 400 g, not-fasted). The test results are set forth in Table 4.The compound of the invention examined in this test was the same as that employed in the pharmacological test-1.
# [3] = tested on: male Dahl salt sensitive male rats (DahlSR); assay: Pharmacological Test-3: blood pressure after oral administration in Dahl salt sensitive rats; conditions: 3 mg/kg; for Blood Pressure (mmHg) 1 hr.: 1 hr. after administration; for Blood Pressure (mmHg) 3 hrs.: 3 hrs. after administration; for Blood Pressure (mmHg) 6 hrs.: 6 hrs. after administration; for Blood Pressure (mmHg) 9 hrs.: 9 hrs. after administration; for Blood Pressure (mmHg) 12 hrs.: 12 hrs. after administration
# Procedure: as §1
# This test was performed in the same manner as in the above pharmacological test-1 using male Dahl salt sensitive male rats (DahlSR, 15 weeks old or older, 300 to 400 g, not-fasted). The compound of the invention examined in this test was the same as that employed in the pharmacological test-1.
# [4] = tested on: male DOCA salt hypertensive rats (DOCAR); assay: Pharmacological Test-2: blood pressure after oral administration in DOCA salt hypertensive rats; conditions: for Blood Pressure (mmHg) 1 hr. / Blood Pressure (mmHg) 3 hrs. / Blood Pressure (mmHg) 6 hrs. / Blood Pressure (mmHg) 9 hrs. / Blood Pressure (mmHg) 12 hrs.: DOCA salt hypertensive rats, oral, 3 mg/kg; for Blood Pressure (mmHg) 1 hr.: 1 hr. after administration; for Blood Pressure (mmHg) 3 hrs.: 3 hrs. after administration; for Blood Pressure (mmHg) 6 hrs.: 6 hrs. after administration; for Blood Pressure (mmHg) 9 hrs.: 9 hrs. after administration; for Blood Pressure (mmHg) 12 hrs.: 12 hrs. after administration; for lapse of time until approximately maximum blood pressure depression: summary of 'Tables 1 and 2' as printed after Table 3
# Procedure: as §1
# as §2, with “using” for “using normal”, “male DOCA salt hypertensive” for “male”, “(DOCAR, 15” for “of Wister strain (15”, “2.The” for “4.The”
SMILES,Blood Pressure (mmHg) 1 hr. ([1]; 1 mg/kg) [mmHg],Blood Pressure (mmHg) 3 hrs. ([1]; 1 mg/kg) [mmHg],Blood Pressure (mmHg) 6 hrs. ([1]; 1 mg/kg) [mmHg],Blood Pressure (mmHg) 1 hr. ([1]; 3 mg/kg) [mmHg],Blood Pressure (mmHg) 3 hrs. ([1]; 3 mg/kg) [mmHg],Blood Pressure (mmHg) 6 hrs. ([1]; 3 mg/kg) [mmHg],lapse of time until approximately maximum blood pressure depression [1],"blood pressure depression, result in words [1]",Blood Pressure (mmHg) 1 hr. ([2]; 3 mg/kg) [mmHg],Blood Pressure (mmHg) 3 hrs. ([2]; 3 mg/kg) [mmHg],Blood Pressure (mmHg) 6 hrs. ([2]; 3 mg/kg) [mmHg],Blood Pressure (mmHg) 9 hrs. ([2]; 3 mg/kg) [mmHg],Blood Pressure (mmHg) 12 hrs. ([2]; 3 mg/kg) [mmHg],"effect on normal blood pressure, result in words [2]",Blood Pressure (mmHg) 1 hr. [3] [mmHg],Blood Pressure (mmHg) 3 hrs. [3] [mmHg],Blood Pressure (mmHg) 6 hrs. [3] [mmHg],Blood Pressure (mmHg) 9 hrs. [3] [mmHg],Blood Pressure (mmHg) 12 hrs. [3] [mmHg],Blood Pressure (mmHg) 9 hrs. ([1]; 1 mg/kg) [mmHg],other results
"COc1cc2nc(N3CCN(C(=O)c4ccccc4)CC3)nc(N)c2cc1OC.Cl [Comp. [C], 4-amino-2-(4-benzoyl-1-piperazinyl)-6,7-dimethoxyquinazoline hydrochloride]",−36,−31,−39,−64,−64,−61,one hour,,,,,,,,,,,,,,
"COc1cc2nc(N3CCN(C(=O)c4ccc(O)cc4)CC3)nc(N)c2cc1OC.Cl [Comp. [D], 4-amino-2-[4-(4-hydroxybenzoyl)-1-piperazinyl]-6,7-dimethoxyquinazoline hydrochloride]",2,−3,−6,−5,−6,−8,,very little blood pressure depression,,,,,,,,,,,,,
"COc1cc2nc(N3CCN(C(=O)C4COc5ccccc5O4)CC3)nc(N)c2cc1OC (stereo not drawn) [Doxa., doxazosin mesilate]",−19,−21,−19,−35,−32,−29,,,−24,−19,−20,−22,−23,largely decrease normal blood pressure,,,,,,,Blood Pressure (mmHg) 1 hr. ([1]; 10 mg/kg): −37 mmHg; Blood Pressure (mmHg) 3 hrs. ([1]; 10 mg/kg): −50 mmHg; Blood Pressure (mmHg) 6 hrs. ([1]; 10 mg/kg): −35 mmHg
"COc1cc2nc(N3CCN(C(=O)c4cc(C(C)(C)C)c(O)c(C(C)(C)C)c4)CC3)nc(N)c2cc1OC.Cl [Invention, 4-amino-2-[4-(3,5-di-t-butyl-4-hydroxybenzoyl)-1-piperazinyl]-6,7-dimethoxyquinazoline hydrochloride]",−4,−25,−41,−29,−60,−75,six hours,slowly decreases the blood pressure,−5,−9,−19,−21,−24,affects the normal blood pressure only slightly,−11,−25,−49,−50,−52,−44,Blood Pressure (mmHg) 12 hrs. ([1]; 1 mg/kg): −39 mmHg; Blood Pressure (mmHg) 9 hrs. ([1]; 3 mg/kg): −64 mmHg; Blood Pressure (mmHg) 12 hrs. ([1]; 3 mg/kg): −60 mmHg; Blood Pressure (mmHg) 1 hr. [4]: −15 mmHg; Blood Pressure (mmHg) 3 hrs. [4]: −42 mmHg; Blood Pressure (mmHg) 6 hrs. [4]: −62 mmHg; Blood Pressure (mmHg) 9 hrs. [4]: −49 mmHg; Blood Pressure (mmHg) 12 hrs. [4]: −37 mmHg; lapse of time until approximately maximum blood pressure depression [4]: six hours; Blood Pressure (mmHg) 1 hr. ([2]; 1 mg/kg): −4 mmHg; Blood Pressure (mmHg) 3 hrs. ([2]; 1 mg/kg): −11 mmHg; Blood Pressure (mmHg) 6 hrs. ([2]; 1 mg/kg): −21 mmHg; Blood Pressure (mmHg) 9 hrs. ([2]; 1 mg/kg): −22 mmHg; Blood Pressure (mmHg) 12 hrs. ([2]; 1 mg/kg): −23 mmHg
"COc1cc2nc(N3CCN(C(=O)c4ccco4)CC3)nc(N)c2cc1OC.Cl [Prazo., prazosin hydrochloride]",−35,−41,−42,−57,−69,−65,one hour,,−44,−40,−33,−33,−43,largely decrease normal blood pressure,−48,−41,−43,−40,−36,−41,Blood Pressure (mmHg) 12 hrs. ([1]; 1 mg/kg): −38 mmHg; Blood Pressure (mmHg) 9 hrs. ([1]; 3 mg/kg): −61 mmHg; Blood Pressure (mmHg) 12 hrs. ([1]; 3 mg/kg): −60 mmHg; Blood Pressure (mmHg) 1 hr. [4]: −81 mmHg; Blood Pressure (mmHg) 3 hrs. [4]: −62 mmHg; Blood Pressure (mmHg) 6 hrs. [4]: −69 mmHg; Blood Pressure (mmHg) 9 hrs. [4]: −50 mmHg; Blood Pressure (mmHg) 12 hrs. [4]: −36 mmHg; lapse of time until approximately maximum blood pressure depression [4]: one to two hours; Blood Pressure (mmHg) 1 hr. ([2]; 1 mg/kg): −27 mmHg; Blood Pressure (mmHg) 3 hrs. ([2]; 1 mg/kg): −21 mmHg; Blood Pressure (mmHg) 6 hrs. ([2]; 1 mg/kg): −23 mmHg; Blood Pressure (mmHg) 9 hrs. ([2]; 1 mg/kg): −23 mmHg; Blood Pressure (mmHg) 12 hrs. ([2]; 1 mg/kg): −24 mmHg
